{"source": "patent US7902373B2", "about": "(Pfizer Inc, priority 2006, dated 2011)"}
{"biological_target": "human recombinant H-PGDS (Homo sapiens, UniProt O60760)", "sequence (O60760 whole entry)": "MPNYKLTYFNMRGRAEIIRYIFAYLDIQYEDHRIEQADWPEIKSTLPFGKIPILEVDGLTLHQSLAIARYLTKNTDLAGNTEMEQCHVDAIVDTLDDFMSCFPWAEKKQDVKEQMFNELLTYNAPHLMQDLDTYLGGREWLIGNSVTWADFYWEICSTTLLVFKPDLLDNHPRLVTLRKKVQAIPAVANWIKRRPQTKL", "assay": "Fluorescence intensity h-PGDS TBA enzyme assay", "type": "biochemical", "settings": "Examples up to 622 (and 3a, 3b)", "units": {"IC50": "nM"}}
{"compound": "O=C(NC1CCN(c2ccc(Cl)cn2)CC1)c1ccc(-c2cccc(F)c2)nc1", "note": "[Example 137, N-[1-(5-Chloropyridin-2-yl)piperidin-4-yl]-6-(3-fluorophenyl)nicotinamide]", "IC50": 1.41}
{"compound": "O=C(NC1CCN(CC2=C(Cl)c3cc(F)ccc3OC2)CC1)c1ccc(-c2cccc(F)c2)nc1", "note": "[Example 309, N-(1-[(4-Chloro-6-fluoro-2H-chromen-3-yl)methyl]piperidin-4-yl)-6-(3-fluorophenyl)nicotinamide]", "IC50": 4.32}
{"compound": "O=C(NC1CCN(c2ncnc3c2ncn3CC(F)(F)F)CC1)c1ccc(-c2cccc(F)c2)nc1", "note": "[Example 106]", "IC50": 0.873}
{"compound": "O=C(NC1CCN(Cc2ccc(F)c(F)c2)CC1)c1ccc(-c2cccc(F)c2)nc1", "note": "[Example 193, N-[1-(3,4-difluorobenzyl)piperidin-4-yl]-6-(3-fluorophenyl)nicotinamide]", "IC50": 0.768}
{"compound": "Cn1ncc(Cl)c1CN1CCC(NC(=O)c2ccc(-c3cccc(F)c3)nc2)CC1", "note": "[Example 519, N-{1-[(4-Chloro-1-methyl-1H-pyrazol-5-yl)methyl]piperidin-4-yl}-6-(3-fluorophenyl)nicotinamide]", "IC50": 0.445}
{"compound": "O=C(NC1CCN(c2cc(Nc3cc[nH]n3)ncn2)CC1)c1ccc(-c2cccc(F)c2)nc1", "note": "[Example 37, N-(1-(6-(1H-Pyrazol-3-ylamino)pyrimidin-4-yl)piperidin-4-yl)-6-(3-fluorophenyl)nicotinamide]", "IC50": 0.478}
{"compound": "CC1C=CC(C)N1C(=O)c1ccc(N2CCC(NC(=O)c3ccc(-c4cccc(F)c4)nc3)CC2)nc1", "note": "(stereo not drawn) [Example 578, N-(1-{5-[(2,5-Dimethyl-2,5-dihydro-1H-pyrrol-1-yl)carbonyl]pyridin-2-yl}piperidin-4-yl)-6-(3-fluorophenyl)nicotinamide]", "IC50": 3.1}
{"compound": "COc1ccc2nccc(CN3CCC(NC(=O)c4ccc(-c5cccc(F)c5)nc4)CC3)c2n1", "note": "[Example 491, 6-(3-Fluorophenyl)-N-{1-[(6-methoxy-1,5-naphthyridin-4-yl)methyl]piperidin-4-yl}nicotinamide]", "IC50": 2.4}
{"compound": "COc1ccccc1CN1CCC(NC(=O)c2ccc(-c3cccc(F)c3)nc2)CC1", "note": "[Example 231, 6-(3-Fluorophenyl)-N-[1-(2-methoxybenzyl)piperidin-4-yl]nicotinamide]", "IC50": 0.552}
{"compound": "Cc1ccccc1-c1c(CN2CCC(NC(=O)c3ccc(-c4cccc(F)c4)nc3)CC2)cnn1C", "note": "[Example 509, 6-(3-Fluorophenyl)-N-(1-{[1-methyl-5-(2-methylphenyl)-1H-pyrazol-4-yl]methyl}piperidin-4-yl)nicotinamide]", "IC50": 0.665}
{"compound": "O=C(NC1CCN(c2nncc3ccccc23)CC1)c1ccc(-c2cccc(F)c2)nc1", "note": "[Example 61, 6-(3-Fluorophenyl)-N-(1-phthalazin-1-ylpiperidin-4-yl)nicotinamide]", "IC50": 0.365}
{"compound": "O=C(NC1CCN(CC2=Cc3ccccc3OC2)CC1)c1ccc(-c2cccc(F)c2)nc1", "note": "[Example 341, N-[1-(2H-Chromen-3-ylmethyl)piperidin-4-yl]-6-(3-fluorophenyl)nicotinamide]", "IC50": 0.485}
{"compound": "Nc1ncncc1CN1CCC(NC(=O)c2ccc(-c3cccc(F)c3)nc2)CC1", "note": "[Example 489, N-{1-[(4-Aminopyrimidin-5-yl)methyl]piperidin-4-yl}-6-(3-fluorophenyl)nicotinamide]", "IC50": 1.18}
{"compound": "CCN1CCN(C(=O)c2ccc(N3CCC(NC(=O)c4ccc(-c5cccc(F)c5)nc4)CC3)nn2)CC1", "note": "[Example 87, N-(1-{6-[(4-Ethylpiperazin-1-yl)carbonyl]pyridazin-3-yl}piperidin-4-yl)-6-(3-fluorophenyl)nicotinamide]", "IC50": 0.538}
{"compound": "Cc1cc(NC(=O)c2ccc(N3CCC(NC(=O)c4ccc(-c5cccc(F)c5)nc4)CC3)nn2)n(C)n1", "note": "[Example 160, N-(1,3-Dimethyl-1H-pyrazol-5-yl)-6-[4-({[6-(3-fluorophenyl)pyridin-3-yl]carbonyl}amino)piperidin-1-yl]pyridazine-3-carboxamide]", "IC50": 0.483}
{"compound": "Cn1ccnc1-c1ccc(CN2CCC(NC(=O)c3ccc(-c4cccc(F)c4)nc3)CC2)cc1", "note": "[Example 376, 6-(3-Fluorophenyl)-N-{1-[4-(1-methyl-1H-imidazol-2-yl)benzyl]piperidin-4-yl}nicotinamide]", "IC50": 0.876}
{"compound": "O=C(CN1CCC(NC(=O)c2ccc(-c3cccc(F)c3)nc2)CC1)c1ccccc1", "note": "[Example 194, 6-(3-Fluorophenyl)-N-[1-(2-oxo-2-phenylethyl)piperidin-4-yl]nicotinamide]", "IC50": 3.5}
{"compound": "O=C(NC1CCN(c2ncccc2Cl)CC1)c1ccc(-c2cccc(F)c2)nc1", "note": "[Example 65, N-[1-(3-Ahloropyridin-2-yl)piperidin-4-yl]-6-(3-fluorophenyl)nicotinamide]", "IC50": 0.354}
{"compound": "Cc1nc(N)c2nc(N3CCC(NC(=O)c4ccc(-c5cccc(F)c5)nc4)CC3)cnc2n1", "note": "[Example 176, N-[1-(4-Amino-2-methylpteridin-6-yl)piperidin-4-yl]-6-(3-fluorophenyl)nicotinamide]", "IC50": 0.759}
{"compound": "CCc1ncc(CN2CCC(NC(=O)c3ccc(-c4cccc(F)c4)nc3)CC2)cn1", "note": "[Example 442, N-{1-[(2-Ethylpyrimidin-5-yl)methyl]piperidin-4-yl}-6-(3-fluorophenyl)nicotinamide]", "IC50": 2.78}
{"compound": "O=C(NC1CCN(Cc2cc(F)cc(F)c2)CC1)c1ccc(-c2cccc(F)c2)nc1", "note": "[Example 248, N-[1-(3,5-Difluorobenzyl)piperidin-4-yl]-6-(3-fluorophenyl)nicotinamide]", "IC50": 1.05}
{"compound": "Cn1ccnc1CN1CCC(NC(=O)c2ccc(-c3cccc(F)c3)nc2)CC1", "note": "[Example 215, 6-(3-Fluorophenyl)-N-{1-[(1-methyl-1H-imidazol-2-yl)methyl]piperidin-4-yl}nicotinamide]", "IC50": 0.38}
{"compound": "O=C(NC1CCN(CC(F)(F)F)CC1)c1ccc(-c2cc(F)cc(F)c2)nc1", "note": "[Example 34, 6-(3,5-Difluorophenyl)-N-[1-(2,2,2-trifluoroethyl)piperidin-4-yl]nicotinamide]", "IC50": 1.85}
{"compound": "O=C(NC1CCN(Cc2cnn3c2CCCCC3)CC1)c1ccc(-c2cccc(F)c2)nc1", "note": "[Example 387, 6-(3-Fluorophenyl)-N-[1-(5,6,7,8-tetrahydro-4H-pyrazolo[1,5-a]azepin-3-ylmethyl)piperidin-4-yl]nicotinamide]", "IC50": 1.85}
{"compound": "COc1cc2c(N3CCC(NC(=O)c4ccc(-c5cccc(F)c5)nc4)CC3)ncnc2c(OC)c1OC", "note": "[Example 123, 6-(3-Fluorophenyl)-N-[1-(678-trimethoxyquinazolin-4-yl)piperidin-4-yl]nicotinamide]", "IC50": 4.66}
{"compound": "Cc1nc2ccc(Cl)cn2c1CN1CCC(NC(=O)c2ccc(-c3cccc(F)c3)nc2)CC1", "note": "[Example 445, N-{1-[(6-Chloro-2-methylimidazo[1,2-a]pyridin-3-yl)methyl]piperidin-4-yl}-6-(3-fluorophenyl)nicotinamide]", "IC50": 4.24}
{"compound": "CC(C)c1nccnc1N1CCC(NC(=O)c2ccc(-c3cccc(F)c3)nc2)CC1", "note": "[Example 155, 6-(3-Fluorophenyl)-N-[1-(3-isopropylpyrazin-2-yl)piperidin-4-yl]nicotinamide]", "IC50": 2.3}
{"compound": "Cn1ccnc1COc1cc(N2CCC(NC(=O)c3ccc(-c4cccc(F)c4)nc3)CC2)ncn1", "note": "[Example 54, 6-(3-Fluorophenyl)-N-(1-{6-[(1-methyl-1H-imidazol-2-yl)methoxy]pyrimidin-4-yl}piperidin-4-yl)nicotinamide]", "IC50": 1.31}
{"compound": "Cc1nnc(N2CCC(NC(=O)c3ccc(-c4cccc(F)c4)nc3)CC2)c2ccccc12", "note": "[Example 131, 6-(3-Fluorophenyl)-N-[1-(4-methylphthalazin-1-yl)piperidin-4-yl]nicotinamide]", "IC50": 0.463}
{"compound": "CCC(C)CCN1CCC(NC(=O)c2ccc(-c3cccc(F)c3)nc2)CC1", "note": "(stereo not drawn) [Example 360, 6-(3-Fluorophenyl)-N-[1-(3-methylpentyl)piperidin-4-yl]nicotinamide]", "IC50": 2.76}
{"compound": "COc1cc(C)cc(OC)c1CN1CCC(NC(=O)c2ccc(-c3cccc(F)c3)nc2)CC1", "note": "[Example 305, N-[1-(2,6-Dimethoxy-4-methylbenzyl)piperidin-4-yl]-6-(3-fluorophenyl)nicotinamide]", "IC50": 2.7}
{"compound": "COCc1cc(N2CCC(NC(=O)c3ccc(-c4cccc(F)c4)nc3)CC2)nc(-c2csc(C)n2)n1", "note": "[Example 73, 6-(3-Fluorophenyl)-N-{1-[6-(methoxymethyl)-2-(2-methyl-13-thiazol-4-yl)pyrimidin-4-yl]piperidin-4-yl}nicotinamide]", "IC50": 2.89}
{"compound": "Nc1nc(N2CCC(NC(=O)c3ccc(-c4cccc(F)c4)nc3)CC2)c2nc[nH]c2n1", "note": "[Example 132, N-[1-(2-Amino-9H-purin-6-yl)piperidin-4-yl]-6-(3-fluorophenyl)nicotinamide]", "IC50": 0.365}
{"compound": "O=C(NC1CCN(Cc2n[nH]c3ccc(Cl)cc23)CC1)c1ccc(-c2cccc(F)c2)nc1", "note": "[Example 512, N-{1-[(5-Chloro-1H-indazol-3-yl)methyl]piperidin-4-yl}-6-(3-fluorophenyl)nicotinamide]", "IC50": 0.391}
{"compound": "O=C(NC1CCNCC1c1ccc(F)cc1)c1ccc(-c2cccc(F)c2)nc1", "note": "(stereo not drawn) [Example 525, 6-(3-Fluorophenyl)-N-[3-(4-fluorophenyl)piperidin-4-yl]nicotinamide]", "IC50": 14.8}
{"compound": "CCn1ccnc1CN1CCC(NC(=O)c2ccc(-c3cccc(F)c3)nc2)CC1", "note": "[Example 431, N-{1-[(1-Ethyl-1H-imidazol-2-yl)methyl]piperidin-4-yl}-6-(3-fluorophenyl)nicotinamide]", "IC50": 0.822}
{"compound": "O=C1COc2ncc(CN3CCC(NC(=O)c4ccc(-c5cccc(F)c5)nc4)CC3)cc2N1", "note": "[Example 514, 6-(3-Fluorophenyl)-N-{1-[(2-oxo-2,3-dihydro-1H-pyrido[2,3-b][1,4]oxazin-7-yl)methyl]piperidin-4-yl}nicotinamide]", "IC50": 0.348}
{"compound": "O=C(NC1CCN(Cc2cc(Cl)c(O)c(Cl)c2)CC1)c1ccc(-c2cccc(F)c2)nc1", "note": "[Example 267, N-[1-(3,5-Dichloro-4-hydroxybenzyl)piperidin-4-yl]-6-(3-fluorophenyl)nicotinamide]", "IC50": 0.994}
{"compound": "Cc1cnc(C)c(N2CCC(NC(=O)c3ccc(-c4cccc(F)c4)nc3)CC2)n1", "note": "[Example 134, N-[1-(3,6-Dimethylpyrazin-2-yl)piperidin-4-yl]-6-(3-fluorophenyl)nicotinamide]", "IC50": 1.81}
